Patent publication US20260001928A1 (CORTERIA PHARMACEUTICALS, priority 2022, published 2026)
*1 amine or outer side, *2 acyl side, *3 side chain or, on linkers, in order; H or OH if unused. Where a SMILES comes first, the peptide text is derived from it. Side-chain parts run from the residue outwards. [ ]: non-standard residue; d: D form. The star is where a group is joined. C16 diacid = O=C(O)CCCCCCCCCCCCCCC(=O)*; γGlu = O=C(O)[C@H](CCC(=O)[*:2])N[*:1]; Aib = CC(C)(N)C(=O)O

Key:
human CRF2a receptor = target: T1, human CRF2a receptor (Homo sapiens, UniProt Q13324); test: Activity at human CRF2a receptor, cAMP functional assay in TeloHEAC cells; type: cell-based; conditions: TeloHEAC cells stably expressing human CRF2a receptor, relative to urocortin 2 (100 nM = 100%)
T1 construct: expressed in transfected cells; host or cells: TeloHEAC cells
T1 sequence (Q13324 1-411): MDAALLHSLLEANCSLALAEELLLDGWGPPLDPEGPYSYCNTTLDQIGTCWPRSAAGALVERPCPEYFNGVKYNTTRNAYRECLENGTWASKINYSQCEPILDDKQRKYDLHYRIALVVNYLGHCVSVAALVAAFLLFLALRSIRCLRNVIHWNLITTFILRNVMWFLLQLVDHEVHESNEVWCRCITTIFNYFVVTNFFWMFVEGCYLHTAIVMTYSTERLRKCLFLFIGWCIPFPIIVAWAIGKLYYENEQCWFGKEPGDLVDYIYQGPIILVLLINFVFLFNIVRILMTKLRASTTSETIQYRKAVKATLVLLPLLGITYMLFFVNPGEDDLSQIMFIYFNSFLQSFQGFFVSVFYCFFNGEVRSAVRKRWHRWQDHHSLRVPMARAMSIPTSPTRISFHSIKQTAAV
Method in brief: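 TeloHEAC cells stably expressing human CRF2a (10000 cells/well) were treated with 16-point 1:2 compound dilutions in HBSS/20 mM HEPES with IBMX for 30 min at 37° C. cAMP was read by HTRF (665/620 nm ratio). EC50 was the concentration giving 50% activation, with 100 nM urocortin 2 set as 100%.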

CFR1R receptor = target: T2, CFR1R receptor (Homo sapiens, UniProt P34998); test: Activity at anti-target CFR1R receptor, cAMP assay in CRF1R-overexpression CHO-K1 cells; type: cell-based; conditions: 100% = Sauvagine at 100 nM; for EC50: cAMP
T2 construct: host or cells: CHO-K1 (clone 2)
T2 sequence (P34998 24-415): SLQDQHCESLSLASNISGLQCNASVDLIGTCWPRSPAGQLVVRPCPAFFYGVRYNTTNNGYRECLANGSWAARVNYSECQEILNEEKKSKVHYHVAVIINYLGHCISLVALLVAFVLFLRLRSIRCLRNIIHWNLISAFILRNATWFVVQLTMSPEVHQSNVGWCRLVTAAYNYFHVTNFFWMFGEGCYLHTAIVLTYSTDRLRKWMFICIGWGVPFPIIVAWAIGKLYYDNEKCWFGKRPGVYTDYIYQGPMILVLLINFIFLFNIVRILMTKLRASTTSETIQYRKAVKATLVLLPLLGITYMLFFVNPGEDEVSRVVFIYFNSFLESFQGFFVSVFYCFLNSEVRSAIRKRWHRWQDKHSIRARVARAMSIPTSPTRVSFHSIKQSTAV
Method in brief: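 Signal is normalised to 100 nM Sauvagine, taken as 100% activation, in clone 2 cells plated at a final 4000 cells/well from frozen stocks.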

Compound | EC50 (human CRF2a receptor) [nM] | Emax (% I) (CFR1R receptor) | EC50 (CFR1R receptor) [nM]
CC[C@H](C)[C@H](NC(C)=O)C(=O)N[C@H](C(=O)N[C@@H](CC(C)C)C(=O)N[C@@H](CO)C(=O)N[C@@H](CC(C)C)C(=O)N[C@@H](CC(=O)O)C(=O)N[C@@H](C(=O)N1CCC[C@H]1C(=O)N[C@H](C(=O)N[C@@H](CCCCN)C(=O)N[C@@H](CC(C)C)C(=O)N[C@@H](CCCCNC(=O)CC[C@H](NC(=O)CCCCCCCCCCCCCCC(=O)O)C(=O)O)C(=O)N[C@@H](CCCCN)C(=O)N[C@H](C(=O)N[C@@H](CC(C)C)C(=O)N[C@@H](CC(C)C)C(=O)N[C@@H](CCCCN)C(=O)N[C@@H](CCC(N)=O)C(=O)N[C@@H](CCC(=O)O)C(=O)N[C@@H](CCCNC(=N)N)C(=O)N[C@@H](CCC(N)=O)C(=O)N[C@@H](CCCCN)C(=O)N[C@@H](CCCCN)C(=O)N[C@@H](CCC(N)=O)C(=O)N[C@@H](CCCNC(=N)N)C(=O)N[C@@H](CCC(=O)O)C(=O)N[C@@H](CCC(N)=O)C(=O)N[C@@H](C)C(=O)N[C@@H](CCC(=O)O)C(=O)N[C@@H](CCCCN)C(=O)N[C@@H](CC(N)=O)C(=O)NC(C)(C)C(=O)N[C@@H](CCC(N)=O)C(=O)N[C@H](C(=O)N[C@@H](CC(C)C)C(=O)N[C@@H](CCC(=O)O)C(=O)N[C@@H](CCC(N)=O)C(=O)N[C@H](C(N)=O)C(C)C)[C@@H](C)CC)[C@@H](C)CC)[C@@H](C)CC)C(C)C)C(C)C [compound 21] (Ac-IVLSLD[dV]PIKLK([γGlu-C16 diacid])KILLKQERQKKQREQAEKN[Aib]QILEQV-NH2) | 0.34 | 5 | > 250
CC[C@H](C)[C@H](NC(C)=O)C(=O)N[C@H](C(=O)N[C@@H](CC(C)C)C(=O)N[C@@H](CO)C(=O)N[C@@H](CC(C)C)C(=O)N[C@@H](CC(=O)O)C(=O)N[C@H](C(=O)N1CCC[C@H]1C(=O)N[C@H](C(=O)N[C@@H](CCCCN)C(=O)N[C@@H](CC(C)C)C(=O)N[C@@H](CCCCNC(=O)CC[C@H](NC(=O)CCCCCCCCCCCCCCC(=O)O)C(=O)O)C(=O)N[C@@H](CCCCN)C(=O)N[C@H](C(=O)N[C@@H](CC(C)C)C(=O)N[C@@H](CC(C)C)C(=O)N[C@@H](CCC(=O)O)C(=O)N[C@@H](CCC(N)=O)C(=O)N[C@@H](CCC(=O)O)C(=O)N[C@@H](CCCCN)C(=O)N[C@@H](CCC(N)=O)C(=O)N[C@@H](CCCCN)C(=O)N[C@@H](CCCCN)C(=O)N[C@@H](CCC(N)=O)C(=O)N[C@@H](CCCNC(=N)N)C(=O)N[C@@H](CCC(=O)O)C(=O)N[C@@H](CCC(N)=O)C(=O)N[C@@H](C)C(=O)N[C@@H](CCC(=O)O)C(=O)N[C@H](C(=O)N[C@@H](CC(N)=O)C(=O)NC(C)(C)C(=O)N[C@@H](CCC(N)=O)C(=O)N[C@H](C(=O)N[C@@H](CC(C)C)C(=O)N[C@@H](C)C(=O)N[C@@H](CCC(N)=O)C(=O)N[C@H](C(N)=O)C(C)C)[C@@H](C)CC)[C@@H](C)O)[C@@H](C)CC)[C@@H](C)CC)C(C)C)C(C)C [compound 39] (Ac-IVLSLDVPIKLK([γGlu-C16 diacid])KILLEQEKQKKQREQAETN[Aib]QILAQV-NH2) | 0.53 | 2 | > 250
